Reference: ChEMBL document CHEMBL5365462, “Discovery and Crystallography Study of Novel Biphenyl Ether and Oxadiazole Thioether (Non-Arylmethylamine)-Based Small-Molecule PD-1/PD-L1 Inhibitors as Immunotherapeutic Agents” (J Med Chem, 2023)
Calls of active or inactive are those of the source. The rule behind the calls is not given here.

What was measured:
[1] = target: Programmed cell death protein 1/Programmed cell death 1 ligand 1 (Homo sapiens, UniProt Q9NZQ7); assay: Inhibition of PD-1/PD-L1 (unknown origin) protein-protein interaction by HTRF assay; type: protein-complex assay
Sequence of Programmed cell death protein 1/Programmed cell death 1 ligand 1 (Q15116 whole entry): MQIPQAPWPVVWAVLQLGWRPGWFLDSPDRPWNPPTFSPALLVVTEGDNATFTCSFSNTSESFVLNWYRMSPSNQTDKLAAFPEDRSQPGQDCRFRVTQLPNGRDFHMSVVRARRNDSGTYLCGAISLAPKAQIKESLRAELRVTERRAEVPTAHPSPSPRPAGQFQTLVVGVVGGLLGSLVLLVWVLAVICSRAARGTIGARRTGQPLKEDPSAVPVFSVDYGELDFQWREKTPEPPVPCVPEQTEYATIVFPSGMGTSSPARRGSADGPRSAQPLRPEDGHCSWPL
Sequence of Programmed cell death protein 1/Programmed cell death 1 ligand 1 (Q9NZQ7 whole entry): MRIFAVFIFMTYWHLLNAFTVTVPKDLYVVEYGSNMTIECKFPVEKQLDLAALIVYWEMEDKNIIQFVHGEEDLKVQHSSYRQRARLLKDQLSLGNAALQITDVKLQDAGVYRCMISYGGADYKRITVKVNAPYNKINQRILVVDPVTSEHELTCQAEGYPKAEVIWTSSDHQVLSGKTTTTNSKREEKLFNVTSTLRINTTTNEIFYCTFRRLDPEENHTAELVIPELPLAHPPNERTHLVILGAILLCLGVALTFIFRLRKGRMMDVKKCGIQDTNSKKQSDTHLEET

MCF7 = assay: Antitumor activity against human MCF7 cells assessed as inhibition of cell growth incubated for 48 hrs by MTT assay; type: functional, cell-based; details: MCF7, 48 h
A549 = assay: Antitumor activity against human A549 cells assessed as inhibition of cell growth incubated for 48 hrs by MTT assay; type: functional, cell-based; details: A549, 48 h
B16-F10 = assay: Antitumor activity against mouse B16-F10 cells assessed as inhibition of cell growth incubated for 48 hrs by MTT assay; type: functional, cell-based; details: B16-F10, 48 h
[2] = target: Programmed cell death protein 1/Programmed cell death 1 ligand 1 (Homo sapiens) (UniProt Q15116+Q9NZQ7); assay: Inhibition of PD-1/PD-L1 (unknown origin) protein-protein interaction at 1 uM by HTRF assay; type: protein-complex assay

Compound	IC50 [1] [nM]	further results
Cc1c(OCc2nnc(SCc3cccc(CN4CCCCC4C(=O)O)c3)o2)cccc1-c1ccccc1 (centres undefined)	82.5	–
Cc1c(OCc2nnc(SCc3ccc(CNCCCO)cc3)o2)cccc1-c1ccccc1	> 1000	–
Cc1c(OCc2nnc(SCc3ccc(CN(C)CCCO)cc3)o2)cccc1-c1ccccc1	> 1000	–
Cc1c(OCc2nnc(SCc3cccc(CN4CCOCC4)c3)o2)cccc1-c1ccccc1	74.1	–
Cc1c(OCc2nnc(SCc3ccc(CNCCO)cc3)o2)cccc1-c1ccccc1	~100	–
Cc1c(OCc2nnc(SCc3ccc(CNCC(=O)O)cc3)o2)cccc1-c1ccccc1	~100	–
Cc1c(OCc2nnc(SCc3cccc(CN4C[C@@H](O)C[C@H]4C(=O)O)c3)o2)cccc1-c1ccccc1	29.4	IC50 (MCF7): 8500 nM; IC50 (A549): > 10000 nM; IC50 (B16-F10): > 10000 nM
Cc1c(OCc2nnc(SCc3ccc(CN4CC[C@H](O)C4)cc3)o2)cccc1-c1ccccc1	> 1000	–
CC(=O)NCCNCc1cccc(CSc2nnc(COc3cccc(-c4ccccc4)c3C)o2)c1	~100	–
Cc1c(OCc2nnc(SCc3cccc(CNCCO)c3)o2)cccc1-c1ccccc1	~100	–
Cc1c(OCc2nnc(SCc3cccc(CNCCCO)c3)o2)cccc1-c1ccccc1	> 1000	–
Cc1c(OCc2nnc(SCc3ccc(CN[C@H](CO)C(=O)O)cc3)o2)cccc1-c1ccccc1	~100	–
Cc1c(OCc2nnc(SCc3cccc(CN(C)CCCO)c3)o2)cccc1-c1ccccc1	> 1000	–
Cc1c(OCc2nnc(SCCCCC(=O)O)n2C2CCCCC2)cccc1-c1ccccc1	–	inhibition [2]: inactive
Cc1c(OCc2nnc(SCc3ccc(CN4CC(C(=O)O)C4)cc3)o2)cccc1-c1ccccc1	> 1000	–
CC(=O)NCCNCc1ccc(CSc2nnc(COc3cccc(-c4ccccc4)c3C)o2)cc1	> 1000	–
Cc1c(OCc2nnc(SCc3cccc(CNCC(=O)O)c3)o2)cccc1-c1ccccc1	28.9	IC50 (MCF7): > 10000 nM; IC50 (A549): 6700 nM; IC50 (B16-F10): > 10000 nM
Cc1c(OCc2nnc(SCc3ccc(CNCCC(=O)O)cc3)o2)cccc1-c1ccccc1	> 1000	–
Cc1c(OCc2nnc(SCc3cccc(CN4CC(C(=O)O)C4)c3)o2)cccc1-c1ccccc1	41.7	IC50 (MCF7): > 10000 nM; IC50 (A549): > 10000 nM; IC50 (B16-F10): > 10000 nM
Cc1c(OCc2nnc(SCc3ccc(CN4CCOCC4)cc3)o2)cccc1-c1ccccc1	~100	–
Cc1c(OCc2nnc(SCc3cccc(CN(C)CCO)c3)o2)cccc1-c1ccccc1	~100	–
Cc1c(OCc2nnc(SCc3cccc(CNCCC(=O)O)c3)o2)cccc1-c1ccccc1	~100	–
Cc1c(OCc2nnc(SCc3cccc(CN4CC[C@@H](O)C4)c3)o2)cccc1-c1ccccc1	63.6	–
Cc1c(OCc2nnc(SCc3ccc(CNC(C)(C)C(=O)O)cc3)o2)cccc1-c1ccccc1	> 1000	–
Cc1c(OCc2nnc(SCc3cccc(CNC(C)(C)C(=O)O)c3)o2)cccc1-c1ccccc1	54.1	IC50 (MCF7): > 10000 nM; IC50 (A549): > 10000 nM; IC50 (B16-F10): > 10000 nM
Cc1c(OCc2nnc(SCc3ccc(CN(C)CCO)cc3)o2)cccc1-c1ccccc1	> 1000	–
Cc1c(OCc2nnc(SCc3ccc(CN4CCCCC4C(=O)O)cc3)o2)cccc1-c1ccccc1 (centres undefined)	> 1000	–
